Reference: paper PMC3930474 (Journal of controlled release : official journal of the …, 2013)

How the values were obtained:
4T1 tumors [1] = assay: Tumor homing / tumor extravasation of FAM-labeled peptides and conjugates; format: in vivo, mouse; conditions: FAM-labeled peptide i.v., three hours after the injection
[2] = mouse, in vivo, iv
4T1 tumors [3] = assay: Evans Blue assay; format: in vivo, mouse; conditions: mice

plasma half-life [2]: 8 min
Substance: CRGDK/RGPD/EC (disulfide) [iRGD]
peptide signal in the tumors (4T1 tumors [1]): had weakened | duration of the bystander effect after a bolus injection (4T1 tumors [3]): less than one hour
